In general, IC50 refers to the point on the concentration scale where inhibition reaches its midpoint. High values mean weaker potency, low ones greater potency.

The target of one experiment is T1, ITK (Homo sapiens, UniProt Q08881).
T1 sequence (Q08881 1-620): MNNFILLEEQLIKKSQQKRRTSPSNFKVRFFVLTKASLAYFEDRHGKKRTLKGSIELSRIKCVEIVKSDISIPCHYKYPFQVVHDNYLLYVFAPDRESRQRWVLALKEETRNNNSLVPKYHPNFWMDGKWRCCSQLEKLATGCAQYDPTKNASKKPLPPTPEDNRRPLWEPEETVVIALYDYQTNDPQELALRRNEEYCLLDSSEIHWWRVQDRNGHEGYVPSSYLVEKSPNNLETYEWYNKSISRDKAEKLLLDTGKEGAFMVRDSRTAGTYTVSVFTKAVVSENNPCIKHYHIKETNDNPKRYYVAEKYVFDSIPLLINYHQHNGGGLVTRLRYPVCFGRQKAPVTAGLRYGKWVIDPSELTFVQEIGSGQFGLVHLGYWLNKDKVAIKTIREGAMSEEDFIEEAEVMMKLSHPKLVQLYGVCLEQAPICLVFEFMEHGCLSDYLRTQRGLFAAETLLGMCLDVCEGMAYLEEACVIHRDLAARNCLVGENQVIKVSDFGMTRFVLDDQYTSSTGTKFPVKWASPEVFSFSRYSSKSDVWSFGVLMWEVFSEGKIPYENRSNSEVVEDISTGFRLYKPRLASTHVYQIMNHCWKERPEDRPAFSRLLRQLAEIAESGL
The experiment in a line: Biochemical kinase assay (Nanosyn, micro-fluidic detection), ITK. Particulars: 12 concentrations, 3 hours incubation, 1 uM peptide substrate. As for the experimental part: (§1) The in vitro kinase assays were performed at Nanosyn (Santa Clara, Calif.) utilizing micro-fluidic detection Technology. The test compounds were serially pre-diluted in DMSO and added, by the acoustic dispensing (Labcyte® 550), directly to 384we11 assay plates into 10 uL of a buffer with enzyme comprising: 100 mM HEPES, pH7.5, 5 mM MgCl2, 0.1% bovine serum albumin, 1 mM DTT, 0.01% Triton X-100 and the enzyme. Final DMSO concentration was maintained at 1% in all samples, including the controls. The reactions were initiated by addition of ATP (to the specified concentration) and the fluorescently labeled peptide substrate to a final concentration of 1 uM, and incubated for 3 hours at […]. Following incubation, the reactions were quenched by addition of 40 μL of termination buffer (100 mM HEPES, pH7.5, 0.01% Triton X-100, 50 mM EDTA). Terminated plates were analyzed using Caliper LabChip® 3000 microfluidic electrophoresis instrument (Caliper Life Sciences/Perkin Elmer). The enzymatic modification of the peptide substrate (phosphorylation) results in a change of net charge enabling electrophoretic separation of product from substrate. As substrate and product are separated by electrophoresis, two peaks of fluorescence are observed. Change in the relative fluorescence intensity of the substrate and product peaks was the parameter measured, reflecting enzyme activity. In the presence of inhibitor, the ratio between product and substrate is altered: signal of the product decreases, while the signal of the substrate increases. Activity in each test sample was determined as the product to sum ratio (PSR): P/(S+P), where P is the peak height of the product and S is the peak height of the FAM-cAMP substrate. For each compound, enzyme activity was measured at 12 concentrations spaced by 3× dilution intervals. Negative control samples (0%−inhibition in the absence of inhibitor, DMSO only) and positive control samples (100%−inhibition, in the absence of enzyme or in the presence of control inhibitor) were assembled in replicates of four and were used to calculate %−inhibition values in the presence of compounds. Percent inhibition (Pinh) was determined using the following equation: Pinh=(PSR0%−PSRinh)/(PSR0%−PSR100%)*100, where PSRinh is the product sum ratio in the presence of inhibitor, PSR0% is the product sum ratio in the absence of inhibitor and PSR100% is the product sum ratio in 100%-inhibition control samples. To determine IC50 values, the inhibition curves (Pinh versus inhibitor concentration) were fitted by 4 parameter sigmoid dose-response model using XLfit software (IDBS).

The next experiment addresses T2, TXK (Homo sapiens, UniProt P42681).
T2 sequence (P42681 1-527): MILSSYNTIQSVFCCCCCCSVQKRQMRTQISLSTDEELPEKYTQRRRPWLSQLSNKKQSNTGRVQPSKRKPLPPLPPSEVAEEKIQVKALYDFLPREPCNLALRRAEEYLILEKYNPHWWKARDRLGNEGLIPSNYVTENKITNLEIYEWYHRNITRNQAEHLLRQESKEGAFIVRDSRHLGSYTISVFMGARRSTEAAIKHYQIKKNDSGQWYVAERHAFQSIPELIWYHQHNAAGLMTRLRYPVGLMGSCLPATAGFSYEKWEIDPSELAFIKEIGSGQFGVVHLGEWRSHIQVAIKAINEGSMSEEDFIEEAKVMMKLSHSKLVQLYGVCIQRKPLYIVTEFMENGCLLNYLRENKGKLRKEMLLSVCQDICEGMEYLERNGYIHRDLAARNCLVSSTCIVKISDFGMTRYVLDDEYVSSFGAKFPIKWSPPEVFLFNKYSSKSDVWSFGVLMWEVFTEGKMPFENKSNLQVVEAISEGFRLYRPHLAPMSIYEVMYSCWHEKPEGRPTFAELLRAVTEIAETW
Nature of the experiment: Biochemical kinase assay (Nanosyn, micro-fluidic detection), TXK. Particulars: for IC50: 12 concentrations, 3 hours incubation, 1 uM peptide substrate; for ITK/TXK Ratio: ratio of ITK IC50 to TXK IC50. How it is done: as §1

The next experiment addresses BTK (Homo sapiens, UniProt Q06187). Nature of the experiment: Biochemical kinase assay (Nanosyn, micro-fluidic detection), BTK. Particulars: 12 concentrations, 3 hours incubation, 1 uM peptide substrate. How it is done: as §1
The target of the next experiment is T3, TEC (Homo sapiens, UniProt P42680).
T3 sequence (P42680 1-631): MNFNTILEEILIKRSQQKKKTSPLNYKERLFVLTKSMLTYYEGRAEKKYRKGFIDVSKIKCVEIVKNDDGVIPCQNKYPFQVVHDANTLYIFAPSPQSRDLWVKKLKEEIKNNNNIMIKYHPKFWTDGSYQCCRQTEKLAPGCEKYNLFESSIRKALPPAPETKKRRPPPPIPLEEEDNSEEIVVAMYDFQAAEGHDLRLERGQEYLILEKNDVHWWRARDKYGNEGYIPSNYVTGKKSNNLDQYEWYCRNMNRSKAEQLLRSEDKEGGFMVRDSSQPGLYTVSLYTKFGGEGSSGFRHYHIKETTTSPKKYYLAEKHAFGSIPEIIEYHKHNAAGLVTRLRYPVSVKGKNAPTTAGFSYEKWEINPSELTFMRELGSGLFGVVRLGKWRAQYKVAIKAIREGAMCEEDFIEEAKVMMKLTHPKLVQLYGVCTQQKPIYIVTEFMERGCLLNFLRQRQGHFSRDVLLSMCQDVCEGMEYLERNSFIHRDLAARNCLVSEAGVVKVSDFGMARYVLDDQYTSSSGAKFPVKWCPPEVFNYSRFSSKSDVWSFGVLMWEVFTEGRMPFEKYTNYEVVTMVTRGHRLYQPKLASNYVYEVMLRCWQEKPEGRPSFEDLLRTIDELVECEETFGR
The experiment in a line: Biochemical kinase assay (Nanosyn, micro-fluidic detection), TEC. Particulars: 12 concentrations, 3 hours incubation, 1 uM peptide substrate. As for the experimental part: as §1

Chain of BTK (Q06187 whole entry): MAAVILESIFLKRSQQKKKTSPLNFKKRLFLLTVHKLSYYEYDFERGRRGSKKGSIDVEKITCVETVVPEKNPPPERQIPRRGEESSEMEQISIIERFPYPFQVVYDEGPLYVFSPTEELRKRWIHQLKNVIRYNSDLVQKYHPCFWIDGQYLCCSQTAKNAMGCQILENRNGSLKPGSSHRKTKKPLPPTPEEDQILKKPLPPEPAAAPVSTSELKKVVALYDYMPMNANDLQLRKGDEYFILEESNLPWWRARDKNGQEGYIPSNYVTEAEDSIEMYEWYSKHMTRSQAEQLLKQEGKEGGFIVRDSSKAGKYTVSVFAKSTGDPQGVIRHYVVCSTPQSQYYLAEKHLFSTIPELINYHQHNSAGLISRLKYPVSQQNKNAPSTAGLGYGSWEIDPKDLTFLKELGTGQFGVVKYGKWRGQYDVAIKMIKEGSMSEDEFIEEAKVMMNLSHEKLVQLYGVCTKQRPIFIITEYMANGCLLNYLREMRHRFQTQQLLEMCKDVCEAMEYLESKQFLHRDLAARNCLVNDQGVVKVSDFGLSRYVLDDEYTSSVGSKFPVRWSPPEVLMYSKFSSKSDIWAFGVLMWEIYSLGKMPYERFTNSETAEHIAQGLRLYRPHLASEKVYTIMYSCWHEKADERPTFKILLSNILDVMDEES

In the case of `C=CC(=O)N1CC[C@]2(C1)C[C@H](n1c(NC(=O)c3cc(C)no3)nc3cc(CN4CCCC4)ccc31)C2` [Compound 1], the IC50 on ITK is 127 nM; on TXK, 5.28 nM; against BTK, 16.1 nM; against TEC it was 95.5 nM. Further, on TXK, the “ITK/TXK Ratio” value came to 24.1.

Regarding `C=CC(=O)N1CC[C@]2(C1)C[C@H](n1c(NC(=O)c3cc(C)no3)nc3cc(CN4CCOCC4)ccc31)C2` [Compound 2], the IC50 at ITK came to 40.9 nM; against TXK it was 3.02 nM; at BTK, 14.7 nM; against TEC, 11.1 nM. Moreover, the “ITK/TXK Ratio” value at TXK stood at 13.5.

In the case of `C=CC(=O)N1CC[C@]2(C1)C[C@H](n1c(NC(=O)c3cc(C)no3)nc3cc(CN4CCN(C)CC4)ccc31)C2` [Compound 3], the IC50 against ITK came to 80.9 nM; at TXK it was 3.48 nM; at BTK it was 17.9 nM; at TEC it was 43.9 nM. Moreover, on TXK, the “ITK/TXK Ratio” value amounted to 23.2.

As for `C=CC(=O)N1CC[C@]2(C1)C[C@H](n1c(NC(=O)c3cc(C(C)C)no3)nc3cc(CN4CCCC4)ccc31)C2` [Compound 4], the IC50 against ITK turned out to be 553 nM; against TXK, 1.42 nM; against BTK, 12 nM; against TEC, 96.3 nM. The “ITK/TXK Ratio” value at TXK is given as 390.

For `C=CC(=O)N1CC[C@]2(C1)C[C@H](n1c(NC(=O)c3cc(C4CCC4)no3)nc3cc(CN4CCCC4)ccc31)C2` [Compound 5], the IC50 against ITK amounted to 576 nM; against TXK, 1.25 nM; on BTK it was 7.65 nM; against TEC, 50.5 nM. Further, the “ITK/TXK Ratio” value at TXK came to 461.

As to `C=CC(=O)N1CC[C@]2(C1)C[C@H](n1c(NC(=O)c3cc(C4CCCCC4)no3)nc3cc(CN4CCCC4)ccc31)C2` [Compound 6], the IC50 at ITK is more than 1000 nM; against TXK it was 1.78 nM; at BTK, 10.1 nM; against TEC, 105 nM. Besides, the “ITK/TXK Ratio” value on TXK is more than 561.

Consider `C=CC(=O)N1CC[C@]2(C1)C[C@H](n1c(NC(=O)c3cc(C(C)(C)C)no3)nc3cc(CN4CCCC4)ccc31)C2` [Compound 7], for which the IC50 stood at 536 nM against ITK, 5.04 nM at TXK, 59.7 nM on BTK and 529 nM against TEC.

`C=CC(=O)N1CC[C@]2(C1)C[C@H](n1c(NC(=O)c3cc(-c4ccccc4)no3)nc3cc(CN4CCCC4)ccc31)C2` [Compound 8]: the IC50 at ITK turned out to be 369 nM; against TXK it was 1.97 nM; at BTK, 25.7 nM; at TEC it was 136 nM. Further, the “ITK/TXK Ratio” value at TXK amounted to 187.

Source of the values: patent US20200215036A1, “BENZIMIDAZOLE COMPOUNDS AS KINASE INHIBITORS” (GB005, Inc., priority 2017, published 2020).
